Experimental data: the supplement of paper PMC10307832

Legend:
Assay in all cases: relative viability (nuclei count vs DMSO), 5 days (fraction); higher = more cells survive
Alisertib + Bortezomib = compound: COc1cc(Nc2ncc3c(n2)-c2ccc(Cl)cc2C(c2c(F)cccc2OC)=NC3)ccc1C(=O)O [Alisertib] + CC(C)C[C@H](NC(=O)[C@H](Cc1ccccc1)NC(=O)c1cnccn1)B(O)O [Bortezomib] (partner 0.002 µM)
Procedure, shortened: (§1)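 Values are medians from duplicate plates. Each reflects relative viability, defined as the nuclei count of treated wells over that of vehicle wells. Lung cancer cell lines in 1536-well plates were pin-tool dosed one day after seeding with one drug alone or with a fixed anchor-drug dose plus five library-drug doses (not always all listed) in √10 steps, then fixed, stained and imaged at 4× after 5 days.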

Alisertib + Tozasertib = compound: COc1cc(Nc2ncc3c(n2)-c2ccc(Cl)cc2C(c2c(F)cccc2OC)=NC3)ccc1C(=O)O [Alisertib] + Cc1cc(Nc2cc(N3CCN(C)CC3)nc(Sc3ccc(NC(=O)C4CC4)cc3)n2)n[nH]1 [Tozasertib] (partner 0.1 µM)
Procedure, shortened: as §1

Alisertib + AZD7762 = compound: COc1cc(Nc2ncc3c(n2)-c2ccc(Cl)cc2C(c2c(F)cccc2OC)=NC3)ccc1C(=O)O [Alisertib] + NC(=O)Nc1cc(-c2cccc(F)c2)sc1C(=O)N[C@H]1CCCNC1 [AZD7762] (partner 0.2 µM)
Procedure, shortened: as §1

Alisertib + Decitabine = compound: COc1cc(Nc2ncc3c(n2)-c2ccc(Cl)cc2C(c2c(F)cccc2OC)=NC3)ccc1C(=O)O [Alisertib] + Nc1ncn([C@H]2C[C@H](O)[C@@H](CO)O2)c(=O)n1 [Decitabine] (partner 2 µM)
Procedure, shortened: as §1

Row | Cell Line | relative viability (Alisertib + Bortezomib; first compound 0.005 µM) | relative viability (Alisertib + Bortezomib; first compound 0.01581 µM) | relative viability (Alisertib + Bortezomib; first compound 0.05 µM) | relative viability (Alisertib + Bortezomib; first compound 0.1581 µM) | relative viability (Alisertib + Bortezomib; first compound 0.5 µM) | relative viability (Alisertib + Tozasertib; first compound 0.005 µM) | relative viability (Alisertib + Tozasertib; first compound 0.01581 µM) | relative viability (Alisertib + Tozasertib; first compound 0.05 µM) | relative viability (Alisertib + Tozasertib; first compound 0.1581 µM) | relative viability (Alisertib + Tozasertib; first compound 0.5 µM) | relative viability (Alisertib + AZD7762; first compound 0.005 µM) | relative viability (Alisertib + AZD7762; first compound 0.01581 µM) | relative viability (Alisertib + AZD7762; first compound 0.05 µM) | relative viability (Alisertib + AZD7762; first compound 0.1581 µM) | relative viability (Alisertib + AZD7762; first compound 0.5 µM) | relative viability (Alisertib + Decitabine; first compound 0.005 µM) | relative viability (Alisertib + Decitabine; first compound 0.01581 µM) | relative viability (Alisertib + Decitabine; first compound 0.05 µM) | relative viability (Alisertib + Decitabine; first compound 0.1581 µM) | relative viability (Alisertib + Decitabine; first compound 0.5 µM)
1 | NCI-H727 | 0.796 | 0.795 | 0.46 | 0.329 | 0.301 | 0.411 | 0.598 | 0.486 | 0.494 | 0.404 | 0.618 | 0.586 | 0.591 | 0.398 | 0.326 | 0.843 | 0.892 | 0.81 | 0.617 | 0.537
2 | HCC-366 | 1.04 | 0.345 | 0.0201 | 0.0154 | 0.0255 | 0.125 | 0.0689 | 0.0539 | 0.0439 | 0.0387 | 0.351 | 0.396 | 0.0718 | 0.0314 | 0.027 | 0.29 | 0.16 | 0.0371 | 0.0279 | 0.0431
3 | HOP-62 | 0.459 | 0.703 | 0.82 | 0.195 | 0.117 | 0.339 | 0.275 | 0.204 | 0.24 | 0.203 | 0.447 | 0.412 | 0.268 | 0.158 | 0.0945 | 0.17 | 0.217 | 0.205 | 0.136 | 0.2
4 | LU99A | 1.15 | 0.872 | 0.396 | 0.24 | 0.182 | 0.276 | 0.272 | 0.219 | 0.216 | 0.203 | 0.502 | 0.296 | 0.158 | 0.131 | 0.136 | 0.856 | 0.85 | 0.311 | 0.27 | 0.186
5 | NCI-H650 | 0.568 | 0.619 | 0.25 | 0.265 | 0.22 | 0.653 | 0.481 | 0.253 | 0.185 | 0.165 | 0.772 | 0.738 | 0.37 | 0.255 | 0.259 | 0.295 | 0.282 | 0.275 | 0.185 | 0.18
6 | A-427 | 0.89 | 0.818 | 0.751 | 0.149 | 0.15 | 0.211 | 0.166 | 0.174 | 0.186 | 0.135 | 0.602 | 0.362 | 0.206 | 0.196 | 0.212 | 0.52 | 0.442 | 0.233 | 0.211 | 0.211
7 | NCI-H441 | 0.715 | 0.394 | 0.184 | 0.17 | 0.155 | 0.478 | 0.366 | 0.253 | 0.286 | 0.227 | 0.927 | 0.977 | 0.471 | 0.243 | 0.199 | 0.227 | 0.197 | 0.137 | 0.152 | 0.153
8 | NCI-H2126 | 1.03 | 1.08 | 0.993 | 0.526 | 0.351 | 0.798 | 0.637 | 0.405 | 0.293 | 0.288 | 0.936 | 0.965 | 0.883 | 0.466 | 0.288 | 0.528 | 0.558 | 0.326 | 0.268 | 0.553
9 | HCC-44 | 0.95 | 0.827 | 0.664 | 0.28 | 0.15 | 0.929 | 0.59 | 0.296 | 0.349 | 0.196 | 0.888 | 0.992 | 0.966 | 0.588 | 0.439 | 0.895 | 0.937 | 0.849 | 0.419 | 0.364
10 | NCI-H460 | 1.07 | 0.9 | 0.428 | 0.0287 | 0.0157 | 0.477 | 0.428 | 0.0521 | 0.0419 | 0.0268 | 0.66 | 0.667 | 0.232 | 0.0611 | 0.0558 | 0.441 | 0.408 | 0.0826 | 0.0385 | 0.0482
11 | NCI-H322M | 1.15 | 1.11 | 1.25 | 0.471 | 0.46 | 0.394 | 0.491 | 0.506 | 0.453 | 0.509 | 0.435 | 0.565 | 0.47 | 0.393 | 0.395 | 0.714 | 0.654 | 0.482 | 0.425 | 0.48
12 | EKVX | 0.967 | 0.8 | 0.391 | 0.185 | 0.169 | 0.379 | 0.305 | 0.205 | 0.141 | 0.151 | 0.554 | 0.46 | 0.278 | 0.132 | 0.172 | 0.303 | 0.302 | 0.206 | 0.174 | 0.158
13 | NCI-H1734 | 0.775 | 0.621 | 0.383 | 0.227 | 0.175 | 0.262 | 0.231 | 0.22 | 0.195 | 0.188 | 0.501 | 0.366 | 0.23 | 0.18 | 0.149 | 0.497 | 0.466 | 0.324 | 0.24 | 0.177
14 | ABC-1 | 0.279 | 0.269 | 0.315 | 0.278 | 0.278 | 0.178 | 0.233 | 0.256 | 0.203 | 0.196 | – | 0.594 | 0.648 | 0.307 | 0.272 | 1.12 | 0.915 | 0.869 | 0.598 | 0.33
15 | EPLC-272H | 0.794 | 0.856 | 0.79 | 0.135 | 0.13 | 0.238 | 0.176 | 0.144 | 0.192 | 0.16 | 0.286 | 0.308 | 0.196 | 0.12 | 0.106 | 0.344 | 0.363 | 0.295 | 0.141 | 0.152
16 | NCI-H596 | – | 0.862 | 1.83 | 0.854 | 0.43 | 0.825 | 0.878 | 0.779 | 0.592 | 0.314 | 0.96 | 1.02 | 1.15 | 0.926 | 0.66 | 1.07 | 1.01 | 1.01 | 0.708 | 0.505
17 | NCI-H1993 | 0.97 | 0.982 | 0.549 | 0.542 | 0.497 | 0.572 | 0.542 | 0.536 | 0.524 | 0.512 | 0.85 | 0.629 | 0.391 | 0.324 | 0.364 | 0.356 | 0.561 | 0.539 | 0.383 | 0.356
18 | NCI-H647 | 0.598 | 0.572 | 0.305 | 0.133 | 0.086 | 0.345 | 0.261 | 0.125 | 0.152 | 0.101 | 0.314 | 0.367 | 0.103 | 0.0861 | 0.0503 | 0.286 | 0.256 | 0.137 | 0.129 | 0.0775
19 | HCC-827 | 1.01 | 1.06 | 0.848 | 0.402 | 0.401 | 0.378 | 0.31 | 0.258 | 0.273 | 0.278 | 0.18 | 0.247 | 0.206 | 0.123 | 0.15 | 0.373 | 0.303 | 0.246 | 0.219 | 0.24
20 | ChaGo-K-1 | 0.88 | 0.696 | 0.322 | 0.276 | 0.232 | 0.228 | 0.213 | 0.194 | 0.207 | 0.198 | 0.827 | 0.755 | 0.633 | 0.213 | 0.166 | 0.518 | 0.423 | 0.222 | 0.197 | 0.19
21 | EMC-BAC-2 | 0.91 | 0.947 | 0.579 | 0.229 | 0.243 | 0.243 | 0.283 | 0.214 | 0.224 | 0.173 | 0.834 | 0.569 | 0.591 | 0.313 | 0.28 | 0.849 | 0.694 | 0.445 | 0.343 | 0.291
22 | NCI-H23 | 0.875 | 0.39 | 0.272 | 0.158 | 0.164 | 0.27 | 0.249 | 0.165 | 0.208 | 0.15 | 0.194 | 0.139 | 0.127 | 0.135 | 0.0999 | 0.3 | 0.184 | 0.184 | 0.2 | 0.178
23 | LC-2-ad | 0.907 | 0.369 | 0.264 | 0.144 | 0.112 | 0.441 | 0.367 | 0.366 | 0.338 | 0.323 | 0.768 | 0.5 | 0.224 | 0.185 | 0.15 | 0.736 | 0.673 | 0.442 | 0.263 | 0.23
24 | HCC-15 | 0.941 | 0.901 | 0.48 | 0.164 | 0.118 | 0.352 | 0.154 | 0.163 | 0.144 | 0.0961 | 0.994 | 1.16 | 1.12 | 0.355 | 0.133 | 0.541 | 0.316 | 0.19 | 0.13 | 0.139
25 | NCI-H2405 | 0.932 | 0.929 | 0.95 | 0.494 | 0.298 | 0.772 | 0.618 | 0.308 | 0.293 | 0.258 | 0.589 | 0.684 | 0.66 | 0.24 | 0.251 | 0.648 | 0.748 | 0.632 | 0.39 | 0.277
26 | LXF-289 | 0.823 | 0.608 | 0.323 | 0.108 | 0.128 | 0.169 | 0.14 | 0.128 | 0.141 | 0.0869 | 0.922 | 0.637 | 0.682 | 0.163 | 0.138 | 0.325 | 0.352 | 0.183 | 0.154 | 0.146
27 | NCI-H1755 | 0.891 | 0.886 | 0.877 | 0.389 | 0.318 | 0.6 | 0.569 | 0.422 | 0.386 | 0.311 | 0.478 | 0.427 | 0.332 | 0.328 | 0.259 | 0.643 | 0.673 | 0.543 | 0.413 | 0.348
